Broadly, the IC50 is the concentration that gives 50% inhibition. By MIC is commonly meant the lowest concentration that inhibits growth of the organism.

Here are results for 4 molecules from paper PMC4205912, “Sea foam as a source of fungal inoculum for the isolation of biologically active natural products” (Mycology, 2014).

Converted amounts (≈) assume the structure as drawn.

In assay [1] the test system is Human foreskin BJ fibroblast cells (ATCC CRL-2522). The assay can be described thus: cytotoxicity assay (Alamar blue), fibroblasts. In kind it is cell-based. The conditions noted are these: Homo sapiens; BJ cells, 24 h; read-out: Fibroblast IC50. How it is done:
(§1) Human foreskin BJ fibroblast cells (ATCC CRL-2522), adult human epidermal keratinocytes (HEKa), and human breast adenocarcinoma cells (ATCC HTB-26) were grown to 80% confluency (growth conditions are provided in Supplementary Materials and Methods), the cells were counted, diluted, and plated into treated 96-well cell culture plates. The BJ fibroblast and HEKa cells were plated at a cell density of 10,000 cells per well and the HTB-26 cells were plated at cell density of 5000 cells per well in 90 µL of respective growth medium (without the addition of antibiotics) and incubated for 24 h to allow cells to adhere to the plates before treatment. Pure compounds were tested in triplicate in serial dilutions of eight concentrations ranging from 128 µg/mL to 1 µg/mL per well (final well volume of 100 µL, 1% DMSO per well). Each of the cell lines were incubated at 37°C in a humidified atmosphere of 5% CO2; the BJ fibroblast and HEKa cells for 24 h and the HTB-26 cells for 72 h. Each plate contained four uninoculated positive controls, four untreated negative controls, and one column containing a concentration range of zinc pyrithione or doxorubicin. Alamar blue was added, 24 h after the treatment, and fluorescence was monitored using a Thermo Scientific Varioskan Flash plate reader at 560/12 excitation, 590 nm emission both at time zero and 4 h after Alamar blue addition. The inferred percentage of cell viability relative to vehicle control wells were calculated after subtracting the time zero emission 590 nm measurement from the final reading and the IC50 was determined.
On the technique in general: Alamar Blue is a resazurin reagent that responds to reducing activity.

Assay [2] concerns Pseudomonas aeruginosa ATCC 14210. In words: microbroth antibiotic susceptibility testing, P. aeruginosa. It is filed as cell-based. To be noted: triplicate, averaged, 22 h at 37°C; for IC50 / MIC: Pseudomonas aeruginosa, ATCC14210. How it is done:
(§2) All microbroth antibiotic susceptibility testing was carried out in triplicate in 96-well plates in accordance with Clinical Laboratory Standards Institute testing standards (NCCLS, [2003]) using the following pathogens: MRSA ATCC 33591 (MRSA), S. warneri ATCC 17917, VRE EF379 (VRE), Pseudomonas aeruginosa ATCC 14210, Proteus vulgaris ATCC 12454, and Candida albicans ATCC 14035. Extract fractions were assayed at 250 µg/mL while pure compounds were serially diluted to generate a range of 12 concentrations (128–0.0625 µg/mL) in a final well volume concentration of 2% DMSO(aq). […] The optical density of the plate was recorded using a Thermo Scientific Varioskan Flash plate reader at 600 nm at time zero and then again after incubation of the plates for 22 h at 37°C. After subtracting the time zero OD600 from the final reading, the percentages of microorganism survival relative to vehicle control wells were calculated.

The subject of assay [3] is adult human epidermal keratinocytes (HEKa). The assay can be described thus: cytotoxicity assay (Alamar blue), keratinocytes. In kind it is cell-based. To be noted: HeKa cells, 24 h; for IC50: Homo sapiens, read-out: Keratinocyte IC50. The method, then:
as §1

In the next assay the test system is S. warneri ATCC 17917. In words: microbroth antibiotic susceptibility testing, S. warneri. To be noted: triplicate, averaged, 22 h at 37°C; for IC50 / MIC: Staphylococcus warneri, ATCC17917; for IC50: read-out: S. warneri IC50; for MIC: read-out: S. warneri MIC. It is filed as cell-based. How it is done:
as §2

A further assay relates to MRSA ATCC 33591. In words: microbroth antibiotic susceptibility testing, MRSA. In kind it is cell-based, methicillin-resistant Staphylococcus aureus. To be noted: triplicate, averaged, 22 h at 37°C; for IC50 / MIC: Staphylococcus aureus; for IC50: read-out: MRSA IC50; for MIC: read-out: MRSA MIC. How it is done:
as §2

Assay [4] deals with erythropoietin gene expression. The arrangement: method as in Cai et al. [1998]. To be noted: at a concentration of 1–1.6 µM; ref Cai et al. [1998]; cited from earlier work.
Assay [5] has as its system Candida albicans ATCC 14035. The assay can be described thus: microbroth susceptibility testing, C. albicans. It is filed as cell-based. To be noted: for IC50 / MIC: Candida albicans, ATCC14035. The method, then: as §2
On the technique in general: Broth dilution looks for growth in wells or tubes with falling amounts of substance.

For assay [6], the system named is Proteus vulgaris ATCC 12454. In words: microbroth antibiotic susceptibility testing, P. vulgaris. It is filed as cell-based. To be noted: triplicate, averaged, 22 h at 37°C; for IC50 / MIC: Proteus vulgaris, ATCC12454. How it is done: as §2, with “14035.” for “14035. Extract fractions were assayed at 250 µg/mL while pure compounds were serially diluted to generate a range of 12 concentrations (128–0.0625 µg/mL) in a final well volume concentration of 2% DMSO(aq).”

For a further assay, the system named is VRE EF379. In words: microbroth antibiotic susceptibility testing, VRE. The conditions noted are these: triplicate, averaged, 22 h at 37°C; for IC50 / MIC: Enterococcus, VRE; for IC50: read-out: VRE IC50; for MIC: read-out: VRE MIC. It is filed as cell-based, vancomycin-resistant Enterococcus faecium. How it is done: as §2
In another assay the test system is stromelysin. The arrangement: method as in Harris et al. [1993]. The conditions noted are these: ref Harris et al. [1993]; read-out: IC50, inhibition of cleavage of β-casein by stromelysin; cited from earlier work.
Assay [7] concerns adult human epidermal keratinocytes (HEKa). In words: cytotoxicity assay (Alamar blue), keratinocytes. It is filed as cell-based. The conditions noted are these: HeKa cells, 24 h.
[8] abbreviates: triplicate, averaged, 22 h at 37°C.

In the case of `Cc1cc(=O)c(O)cc2c1C[C@H]1CC(C)(C)/C=C/C[C@@]3(C)Oc4cc(O)cc(C)c4C[C@@H]3C[C@H](O)[C@]1(C)O2` [Epolone A, epolone A], the IC50 in [1] is 14 µg/mL (≈ 26.9 µM); in [2], greater than 128 µg/mL; in [3], 13 µg/mL (≈ 25 µM); in the assay on S. warneri ATCC 17917 it was 33 µg/mL (≈ 63.4 µM); in the assay on MRSA ATCC 33591, 48 µg/mL (≈ 92.2 µM); in [5] (setting [8]), greater than 64 µg/mL. The IC50 in [6] is greater than 64 µg/mL; with VRE EF379 it was 44 µg/mL (≈ 84.5 µM). Moreover, the MIC in assay [2] is greater than 128 µg/mL; with S. warneri ATCC 17917, 64 µg/mL (≈ 123 µM); in the assay with MRSA ATCC 33591, 64 µg/mL (≈ 123 µM); in [5] (setting [8]), greater than 64 µg/mL; in [6], greater than 64 µg/mL; in the assay with VRE EF379, greater than 64 µg/mL. Besides, the “induction of erythropoietin gene expression” value (“induction” below) in [4] is “five-fold”.
Regarding `Cc1cc(=O)c(O)cc2c1C[C@H]1CC(C)(C)/C=C/C[C@@]3(C)Oc4cc(O)c(=O)cc(C)c4C[C@@H]3C[C@H](O)[C@]1(C)O2` [Pycnidione, pycnidione], the concentration for half-maximal inhibition (IC50) was 11 µg/mL (≈ 20 µM) in [1]; greater than 128 µg/mL in assay [2]; 15 µg/mL (≈ 27.3 µM) in assay [3]; 12 µg/mL (≈ 21.9 µM) with S. warneri ATCC 17917; 31 µM in the assay with stromelysin; 12 µg/mL (≈ 21.9 µM) in the assay on MRSA ATCC 33591. For the same molecule, the IC50 in [5] (setting [8]) is 5 µg/mL (≈ 9.11 µM); in assay [6], 30 µg/mL (≈ 54.7 µM); in the assay on VRE EF379, 46 µg/mL (≈ 83.8 µM). Moreover, the MIC in [2] was greater than 128 µg/mL; in the assay on S. warneri ATCC 17917 it was 64 µg/mL (≈ 117 µM); in the assay on MRSA ATCC 33591, 16 µg/mL (≈ 29.2 µM); in assay [5] (setting [8]), 8 µg/mL (≈ 14.6 µM); in assay [6], 64 µg/mL (≈ 117 µM); with VRE EF379 it was 64 µg/mL (≈ 117 µM). In assay [4], the “induction” value is recorded as “five-fold”.
In the case of coniothyrione, in [2], the “P. aeruginosa IC50” value is recorded as greater than 64 µg/mL and the “P. aeruginosa MIC” value was greater than 64 µg/mL. The “Keratinocyte IC50” value in assay [3] turned out to be 5 µg/mL. In the assay on S. warneri ATCC 17917, the “S. warneri IC50” value came out at 12 µg/mL and the “S. warneri MIC” value stood at 16 µg/mL. The “Keratinocyte MIC” value in [7] was found to be 64 µg/mL. Also, in the assay on MRSA ATCC 33591, the “MRSA IC50” value is recorded as 8 µg/mL and the “MRSA MIC” value stood at 16 µg/mL. In assay [5] (setting [8]), the “C. albicans IC50” value is greater than 64 µg/mL and the “C. albicans MIC” value was greater than 64 µg/mL. In [6], the “P. vulgaris IC50” value is reported as 30 µg/mL and the “P. vulgaris MIC” value was greater than 64 µg/mL. Also, in the assay with VRE EF379, the “VRE IC50” value is 4 µg/mL and the “VRE MIC” value is listed as 16 µg/mL.
In the case of `C/C1=C\C(C)(C)/C=C/C[C@@]2(C)Oc3cc(O)c(=O)cc(C)c3CC2C[C@@H](O)C1` (some centres unmarked) [Epolone B, epolone B], the IC50 is greater than 128 µg/mL in assay [1]; greater than 128 µg/mL in assay [2]; 50 µg/mL (≈ 130 µM) in assay [3]; 48 µg/mL (≈ 125 µM) with MRSA ATCC 33591; 43 µg/mL (≈ 112 µM) in [5] (setting [8]); greater than 64 µg/mL in assay [6]. Also, the IC50 with VRE EF379 is 52 µg/mL (≈ 135 µM). Moreover, the minimum inhibitory concentration (MIC) in [2] was greater than 128 µg/mL; with MRSA ATCC 33591, 64 µg/mL (≈ 166 µM); in assay [5] (setting [8]), 64 µg/mL (≈ 166 µM); in assay [6] it was greater than 64 µg/mL; in the assay with VRE EF379, greater than 64 µg/mL. Also, the “induction” value in [4] is reported as “five-fold”. Also, in assay [5], the “effect against C. albicans” value is on record as “inhibitory effect”.
